In patent publication US20260101887A1, “AN EMULSIFIABLE CONCENTRATE HAVING A LACTONE-BASED SOLVENT SYSTEM” (priority 2022, published 2026):

Columns and labels:
[1] = solvent in water, visual assessment of undissolved solvent
Procedure: Herein, various amounts of solvent and water were mixed with vigorous shaking in a glass-stoppered graduated cylinder or separating funnel, followed by standing for at least 30 min to enable separation. […] This method can be repeated with various amounts of solvent and water to enable the determination of the water-solubility of the solvent.

Abutilon theophrasti = assay: Rate of penetration measured by Fluorescence Index enhancement (PS II inhibitor Na Bentazone into leaf); assay type: in vivo; set-up: scale not given here; conditions: Na B + E + S: 0.64% w/w Na Bentazone, 0.1% emulsifier, 0.9% solvent in CIPAC D water; two 5 μl droplets on leaf, 1 h
Source text: PS II inhibitors effectively block the chlorophyll photosynthetic pathways within the leaf, resulting in enhanced fluorescence from the non-adsorbed incident light. The resulting emitted light can be measured at selected time intervals, enabling the determination of the rate of uptake of the PS II inhibitor and thus penetration effect of the selected adjuvant.
The following experiments were on the broadleaf weed Abutilon theophrasti (EPPO code ABUTH) at a Biologische Bundesanstalt, Bundessortenamt und Chemische Industrie (BBCH) growth stage 13 to 14.
The penetration experiments are conducted via the deposition of two droplets (5 μl) of the herbicide/emulsifier/lactone-based solvent formulation onto the leaf surface. The droplets are allowed to stand on the leaf surface for 1 h, after which a fluorescence image of the exposed leaf surface is recorded using the PAM chlorophyll fluorescence imaging system (Imaging PAM, Heinz-Walz GmbH, Germany). The resulting “Total Fluorescence” and “Fluorescence Area” are then quantified via the analysis of the recorded fluorescence image using image analysis software. This enables the calculation of the “Fluorescence Index”:
The “Fluorescence Index” is a therefore a direct measurement of the penetration of the active ingredient into the plant leaf and can thus be used to measure enhanced penetration via the use of selected adjuvants. Identical experiments are conducted on 7 further leaves using the same formulation to account for biological variability and experimental error.

Soya plants = assay: Phytotoxicity determination on Soya; assay type: in vivo; conditions: 200 L/ha of 1% w/w emulsion (EC 90% w/w solvent, 10% w/w emulsifier); after 14 days; visual scale 0% to 100%
Procedure: Soya plants grown under standard greenhouse conditions in the growth stage 13 were treated with aqueous emulsions in a spray cabin. The resulting plant spray dosage represented an application rate of 200 L/ha of 1% w/w emulsion, corresponding to the application of 2 L/ha of the emulsifiable concentrate. […] The experimental period lasted 14 days, during which time the Soya plants were given optimum watering, nutrients, and light.
An assessment of 1 to 10% phytotoxicity is the limit of acceptable plant damage by farmers.

Structure (SMILES): CCCC(C)C1OC(=O)CC1C (stereo not drawn) [Beta, delta-dimethyl- gamma-octalactone, Beta,delta-dimethyl-gamma-octalactone]
- Water solubility [1]: ≤0.2 % w/w

Structure (SMILES): CCCCC1OC(=O)CC1C (stereo not drawn) [Beta-methyl-gamma-octalactone]
- Water solubility [1]: ≤0.2 % w/w

Structure (SMILES): CCCCCC1CCCC(=O)O1 (centres unmarked) [Delta-decalactone]
- Water solubility [1]: 0.4 % w/w
- Fluorescence Index (Abutilon theophrasti): 9.66

Structure (SMILES): CCCCCCCC1CCCC(=O)O1 (centres unmarked) [Delta-dodecalactone]
- Water solubility [1]: 0.07 % w/w
- Fluorescence Index (Abutilon theophrasti): 15.21

Structure (SMILES): CCCC(C)C1CCC(=O)O1 (centres unmarked) [Delta-methyl-gamma- octalactone, Delta-methyl-gamma-octalactone]
- Water solubility [1]: ≤0.2 % w/w

Structure (SMILES): CCCCC1CCCC(=O)O1 (centres unmarked) [Delta-nonalactone]
- Water solubility [1]: 1.2 % w/w

Structure (SMILES): CCCCCCCCC1CCCC(=O)O1 (centres unmarked) [Delta-tridecalactone]
- Water solubility [1]: <0.1 % w/w

Structure (SMILES): CCCCCCCCCC(=O)N(C)C [Dimethyl decanamide, reference compound]
- phytotoxicity (Soya plants): 50%

Structure (SMILES): CCCCCCC1CCC(=O)O1 (centres unmarked) [Gamma-decalactone]
- Water solubility [1]: 0.1 % w/w
- Fluorescence Index (Abutilon theophrasti): 14.13

Structure (SMILES): CCCCCCCCC1CCC(=O)O1 (centres unmarked) [Gamma-dodecalactone]
- Water solubility [1]: <0.02 % w/w

Structure (SMILES): CCC1CCC(=O)O1 (centres unmarked) [Gamma-hexalactone]
- Water solubility [1]: 8 % w/w
- Fluorescence Index (Abutilon theophrasti): 6.11

Structure (SMILES): CCCCCC1CCC(=O)O1 (centres unmarked) [Gamma-nonalactone]
- Water solubility [1]: 0.2 % w/w
- phytotoxicity (Soya plants): 0%
- Fluorescence Index (Abutilon theophrasti): 16.44

Structure (SMILES): CCCCC1CCC(=O)O1 (centres unmarked) [Gamma-octalactone]
- Water solubility [1]: 0.8 % w/w
- Fluorescence Index (Abutilon theophrasti): 8.80

Structure (SMILES): CCCCCCCC1CCC(=O)O1 (centres unmarked) [Gamma-undecalactone]
- Fluorescence Index (Abutilon theophrasti): 11.67

Structure (SMILES): CC1CCC(=O)O1 (centres unmarked) [Gamma-valerolactone]
- Water solubility [1]: 100 % w/w
- Fluorescence Index (Abutilon theophrasti): 4.85
